Data on three molecules can be found in PMC7933930, “Development of a small molecule that corrects misfolding and increases secretion of Z α1‐antitrypsin” (EMBO Molecular Medicine, 2021).

The target in assay [1] is Z α1‐antitrypsin (Homo sapiens, UniProt P01009, E366K). Description: TR‐FRET immunoassay (2C1 antibody) of Z α1‐antitrypsin polymerisation, 37°C, 72 h. The format is biochemical. On the set-up: purified from the plasma of Z α1‐antitrypsin homozygotes; from tissue; host or cells: human plasma of Z α1-antitrypsin homozygotes. The conditions noted are these: 5 nM Z α1‐antitrypsin, 37°C, 72 h; read-out: pIC50, blocking polymerisation in the TR‐FRET immunoassay (converted). An excerpt:
Z α1‐antitrypsin is a conformationally dynamic molecule (Lomas et al, 1992; Knaupp et al, 2010) that represents a non‐classical target for drug discovery. A cell‐free assay approach to hit finding was undertaken so as not to miss compounds that bind α1‐antitrypsin and block polymerisation but lack the molecular properties to cross cell membranes. This comprised the following: (i) an encoded library technology (ELT) screen (Goodnow et al, 2017) of a library with a nominal diversity of 2 × 10^12 unique components to identify binders to Z α1‐antitrypsin and (ii) a high‐throughput screen (HTS) of the GSK compound collection (~ 1.7 million compounds) for small molecules that could block polymerisation of Z α1‐antitrypsin. […] In the HTS assay, polymerisation of purified Z α1‐antitrypsin was induced by incubation at 37°C for 72 h in the presence of test compounds, with end‐point quantification of polymers performed using the polymer‐specific monoclonal antibody, 2C1 (Miranda et al, 2010) in a TR‐FRET‐based immunoassay. […]
An antibody‐based time‐resolved fluorescence resonance energy transfer (TR‐FRET) assay was developed to monitor the polymerisation of 5 nM Z α1‐antitrypsin following incubation with varying concentrations of compounds at 37°C for 72 h. This assay used the 2C1 monoclonal antibody (1.25 nM) that is specific to pathological polymers of α1‐antitrypsin (Miranda et al, 2010), a polyclonal antibody (1/320 dilution) that binds to all forms of α1‐antitrypsin (Abcam product 9373), an anti‐mouse IgG (1.5 nM) labelled with fluorescence donor Eu‐W1024 (Perkin Elmer product AD0076) and an anti‐rabbit IgG (14.3 nM labelled with acceptor [APC]). […] The TR‐FRET signal was read on an Envision plate reader (PerkinElmer), by excitation of Europium at 337 nm and detection of emission at 665 and 620 nm.

Assay [2] has as its system Z α1‐antitrypsin polymers. On the set-up: method as in Hidvegi et al, 2010. Particulars: Z α1‐antitrypsin transgenic mice, 2 weeks of dosing; ref Hidvegi et al, 2010; cited from earlier work.
The target in assay [3] is bovine α‐chymotrypsin (bovine).

Z α1‐antitrypsin, sequence (P01009 25-418 E366K): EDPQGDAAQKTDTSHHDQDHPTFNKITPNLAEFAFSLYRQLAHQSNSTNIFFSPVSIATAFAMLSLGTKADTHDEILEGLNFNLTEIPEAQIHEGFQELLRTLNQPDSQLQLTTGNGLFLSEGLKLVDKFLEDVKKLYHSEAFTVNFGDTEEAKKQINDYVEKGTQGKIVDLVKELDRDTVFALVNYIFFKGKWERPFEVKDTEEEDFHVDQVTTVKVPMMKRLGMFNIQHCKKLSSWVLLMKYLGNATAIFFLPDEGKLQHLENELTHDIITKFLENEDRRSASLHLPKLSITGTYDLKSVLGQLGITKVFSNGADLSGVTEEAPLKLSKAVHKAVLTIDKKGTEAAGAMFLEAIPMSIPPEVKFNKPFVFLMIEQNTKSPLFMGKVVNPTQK
wild‐type M α1‐antitrypsin, purified from plasma, sequence (P01009 25-418): as the sequence (P01009 25-418 E366K) above, with K342E counted along it

For the molecule `CCCC(NC(=O)c1ccc2cc[nH]c2c1)C(O)c1ccccc1` (stereo not drawn) [GSK425], in assay [1], the IC50 is 316 nM.

As for `NC(=O)N1c2ccccc2C=Cc2ccccc21` [carbamazepine], the “effect on liver polymer” value in assay [2] is given as “profound effects on liver polymer”.

The molecule “wild‐type M α1‐antitrypsin, purified from plasma (from UniProt P01009 25-418) (natural protein)” registered a protease inhibitory activity (stoichiometry of inhibition, residual chymotrypsin activity) after pre‐incubation with 50 µM GSK716 in assay [3] of more than 98%.
